Laboratory results: US20150284394A1, “INHIBITORS OF BRUTON'S TYROSINE KINASE” (HOFFMANN-LA ROCHE INC., priority 2012, published 2015)

Tests used:
Bruton's Tyrosine Kinase = Bruton's Tyrosine Kinase (Homo sapiens, UniProt Q06187); experiment: Bruton's Tyrosine Kinase (BTK) Inhibition TR-FRET competition assay; assay type: binding; conditions: inactivated state of BTK; Kinase Tracer 178; 18-24 h at 14° C
Description: This BTK competition assay measures compound potency (IC50) for the inactivated state of Bruton's Tyrosine Kinase using FRET (Forster/Fluorescence Resonance Energy Transfer) technology. The BTK-Eu complex was incubated on ice one hour prior to use at a starting concentration of 50 nM BTK-Bioease™: 10 nM Eu-streptavidin (Perkin-Elmer Catalog# AD0062). The assay buffer consisted of 20 mM HEPES (pH 7.15), 0.1 mM DTT, 10 mM MgCl2, 0.5 mg/ml BSA with 3% Kinase Stabilizer (Fremont Biosolutions, Catalog # STB-K02). After 1 h, the reaction mixture from above was diluted 10 fold in assay buffer to make 5 nM BTK: 1 nM Eu-Streptavidin complex (donor fluorophore). […] of a mixture of 0.11 nM BTK-Eu and 0.11 nM Kinase Tracer 178 (Invitrogen, Catalog # PV5593,) with BTK-Eu alone as no negative control, was then dispensed into 384-well flat bottom plates (Greiner, 784076). Compounds to be tested in assay were prepared as 10× concentrations and serial dilution in half-log increments was performed in DMSO so as to generate 10 point curves. To initiate the FRET reaction, compounds prepared as 10× stock in DMSO was added to the plates and the plates were incubated 18-24 h at 14° C.
After the incubation the plates were read on a BMG Pherastar Fluorescent plate reader (or equivalent) and used to measure the emission energy from the europium donor fluorophore (620 nm emission) and the FRET (665 nm emission). The negative control well values were averaged to obtain the mean minimum. The positive “no inhibitor” control wells were averaged to obtain the mean maximum. Percent of maximal FRET was calculated using following equation:
% max FRET=100×[(FSRcmpd−FSRmean min)/(FSRmean max−FSRmean min)]
where FSR=FRET Signal ratio. % Max FRET curves were plotted in Activity Base (Excel) and the IC50(%), hill slope, z′ and % CV were determined. The mean IC50 and standard deviation will be derived from duplicate curves (singlet inhibition curves from two independent dilutions) using Microsoft Excel.

B cells in human blood = experiment: Inhibition of B cell activation in whole blood measured by CD69 expression; assay type: cell-based; conditions: anti-IgM stimulation, 20 hours, CD69-positive cells that are also CD20-positive, read-out: HWB IC50
Description: A procedure to test the ability of Btk inhibitors to suppress B cell receptor-mediated activation of B cells in human blood is as follows:
Human whole blood (HWB) is obtained from healthy volunteers, with the following restrictions: 24 hr drug-free, non-smokers. Blood is collected by venipuncture into Vacutainer tubes anticoagulated with sodium heparin. Test compounds are diluted to ten times the desired starting drug concentration in PBS (20×), followed by three-fold serial dilutions in 10% DMSO in PBS to produce a nine point dose-response curve. 5.5 μl of each compound dilution is added in duplicate to a 2 ml 96-well V bottom plate (Analytical Sales and Services, #59623-23); 5.5 μl of 10% DMSO in PBS is added to control and no-stimulus wells. HWB (100 μl) is added to each well, and after mixing the plates are incubated at 37 C, 5% CO2, 100% humidity for 30 minutes. Goat F(ab′)2 anti-human IgM (Southern Biotech, #2022-14) (10 μl of a 500 μg/ml solution, 50 μg/ml final concentration) is added to each well (except the no-stimulus wells) with mixing and the plates are incubated for an additional 20 hours.
At the end of the 20 hour incubation, samples are incubated with florescent-probe-labeled anti-bodies (15 μl PE Mouse anti-Human CD20, BD Pharmingen, #555623, and/or 20 ul APC Mouse anti-Human CD69, BD Pharmingen #555533) for 30 minutes, at 37 C, 5% CO2, 100% humidity. Included are induced control, unstained and single stains for compensation adjustments and initial voltage settings. Samples are then lysed with 1 ml of 1× Pharmingen Lyse Buffer (BD Pharmingen #555899), and plates are centrifuged at 1800 rpm for 5 minutes. Supernatants are removed via suction and the remaining pellets are lysed again with another 1 ml of 1× Pharmingen Lyse Buffer, and plates are spun down as before. Supernatants are aspirated and remaining pellets are washed in FACs buffer (PBS+1% FBS). After a final spin, the supernantants are removed and pellets are resuspended in 180 μl of FACs buffer. Samples are transferred to a 96 well plate suitable to be run on the HTS 96 well system on the BD LSR II flow cytometer.
Using appropriate excitation and emission wavelengths for the fluorophores used, data are acquired and percent positive cell values are obtained using Cell Quest Software. Results are initially analyzed by FACS analysis software (Flow Jo). […] The IC50 values are calculated using XLfit software version 3, equation 201.

Bruton's Tyrosine Kinase, sequence (Q06187 whole entry): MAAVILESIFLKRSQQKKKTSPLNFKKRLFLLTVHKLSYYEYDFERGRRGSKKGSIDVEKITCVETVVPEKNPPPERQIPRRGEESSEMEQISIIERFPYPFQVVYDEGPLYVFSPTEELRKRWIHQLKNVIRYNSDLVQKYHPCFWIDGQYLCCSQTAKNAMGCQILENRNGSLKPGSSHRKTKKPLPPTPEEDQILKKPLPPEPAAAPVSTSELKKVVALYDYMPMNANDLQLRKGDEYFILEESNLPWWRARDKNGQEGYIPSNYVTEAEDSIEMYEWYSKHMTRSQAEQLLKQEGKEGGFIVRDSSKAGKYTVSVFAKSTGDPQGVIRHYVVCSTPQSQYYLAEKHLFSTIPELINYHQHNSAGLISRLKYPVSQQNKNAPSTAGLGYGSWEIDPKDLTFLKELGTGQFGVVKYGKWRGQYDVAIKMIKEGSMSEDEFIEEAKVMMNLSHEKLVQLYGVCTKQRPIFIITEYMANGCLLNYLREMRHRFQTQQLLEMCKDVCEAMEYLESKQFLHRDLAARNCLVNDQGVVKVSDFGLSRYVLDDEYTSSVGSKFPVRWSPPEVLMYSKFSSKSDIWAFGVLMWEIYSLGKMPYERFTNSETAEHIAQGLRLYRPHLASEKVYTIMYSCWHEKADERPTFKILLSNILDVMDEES

| SMILES | IC50 (Bruton's Tyrosine Kinase) [nM] | IC50 (B cells in human blood) [nM] |
| --- | --- | --- |
| CC(C)c1ccc(C(=O)NCc2ccc(-c3ncnc4[nH]c(-c5cnn(C)c5)cc34)cc2)cc1 [Compound I-23, 4-Isopropyl-N-{4-[6-(1-methyl-1H-pyrazol-4-yl)-7H-pyrrolo[2,3-d]pyrimidin-4-yl]-benzyl}-benzamide] | 7 | 1400 |
| Cn1cc(-c2cc3c(-c4ccc(CNC(=O)c5cc6n(n5)CCCC6)c(F)c4)ncnc3[nH]2)cn1 [Compound I-47, N-(2-fluoro-4-(6-(1-methyl-1H-pyrazol-4-yl)-7H-pyrrolo[2,3-d]pyrimidin-4-yl)benzyl)-4,5,6,7-tetrahydropyrazolo[1,5-a]pyridine-2-carboxamide] | 3.2 | 674 |
| Cn1cc(-c2cc3c(-c4ccc(CNC(=O)c5ccc(C6(C)COC6)cc5)c(F)c4)ncnc3[nH]2)cn1 [Compound I-35, N-{2-Fluoro-4-[6-(1-methyl-1H-pyrazol-4-yl)-7H-pyrrolo[2,3-d]pyrimidin-4-yl]-benzyl}-4-(3-methyl-oxetan-3-yl)-benzamide] | 8 | 5500 |
| CC(C)(C)c1ccc(C(=O)NCc2ccc(-c3ncnc4[nH]c(-c5cnn(CC(=O)O)c5)cc34)cc2F)cc1 [Compound I-46, [4-(4-{4-[(4-tert-Butyl-benzoylamino)-methyl]-3-fluoro-phenyl}-7H-pyrrolo[2,3-d]pyrimidin-6-yl)-pyrazol-1-yl]-acetic acid] | 1 | > 50000 |
| CNC(=O)c1cc2c(-c3ccc(CNC(=O)c4ccc(C(C)(C)C)cc4)c(F)c3)ncnc2[nH]1 [Compound I-17, 4-{4-[(4-tert-Butyl-benzoylamino)-methyl]-3-fluoro-phenyl}-7H-pyrrolo[2,3-d]pyrimidine-6-carboxylic acid methylamide] | 98 | 16200 |
| Cn1cc(-c2cc3c(-c4ccc(CNC(=O)c5cc6c(s5)CCCC6)cc4)ncnc3[nH]2)cn1 [Compound I-26, 4,5,6,7-Tetrahydro-benzo[b]thiophene-2-carboxylic acid 4-[6-(1-methyl-1H-pyrazol-4-yl)-7H-pyrrolo[2,3-d]pyrimidin-4-yl]-benzylamide] | 1 | 608 |
| Cn1cc(-c2cc3c(-c4ccc(CNC(=O)c5ccc(C(C)(C)C)cc5)c(F)c4)ncnc3[nH]2)cn1 [Compound I-27, 4-tert-Butyl-N-{2-fluoro-4-[6-(1-methyl-1H-pyrazol-4-yl)-7H-pyrrolo[2,3-d]pyrimidin-4-yl]-benzyl}-benzamide] | 2 | 812 |
| Cn1cc(-c2cc3c(-c4ccc(CN5Cc6cc(C(C)(C)C)sc6C5=O)c(F)c4)ncnc3[nH]2)cn1 [Compound I-33, 2-tert-Butyl-5-{2-fluoro-4-[6-(1-methyl-1H-pyrazol-4-yl)-7H-pyrrolo[2,3-d]pyrimidin-4-yl]-benzyl}-4,5-dihydro-thieno[2,3-c]pyrrol-6-one] | 1 | 129 |
| CCOC(=O)Cn1cc(-c2cc3c(-c4ccc(CNC(=O)c5ccc(C(C)(C)C)cc5)c(F)c4)ncnc3[nH]2)cn1 [Compound I-45, [4-(4-{4-[(4-tert-Butyl-benzoylamino)-methyl]-3-fluoro-phenyl}-7H-pyrrolo[2,3-d]pyrimidin-6-yl)-pyrazol-1-yl]-acetic acid ethyl ester] | 0.6 | 222 |
